Results taken from BindingDB's records for doi:10.7270/Q2KP80MW (The Scripps Research Institute Molecular Screening Center, 2011).

The molecules below were run against T1, Peroxisome proliferator-activated receptor gamma (Homo sapiens, UniProt P37231) (assay: PPARg ligand-binding domain binders, dose response, PPARg partial agonist project, biochemical, fluorescence polarization, PolarScreen (AID 504453)).
T1 sequence (P37231 whole entry): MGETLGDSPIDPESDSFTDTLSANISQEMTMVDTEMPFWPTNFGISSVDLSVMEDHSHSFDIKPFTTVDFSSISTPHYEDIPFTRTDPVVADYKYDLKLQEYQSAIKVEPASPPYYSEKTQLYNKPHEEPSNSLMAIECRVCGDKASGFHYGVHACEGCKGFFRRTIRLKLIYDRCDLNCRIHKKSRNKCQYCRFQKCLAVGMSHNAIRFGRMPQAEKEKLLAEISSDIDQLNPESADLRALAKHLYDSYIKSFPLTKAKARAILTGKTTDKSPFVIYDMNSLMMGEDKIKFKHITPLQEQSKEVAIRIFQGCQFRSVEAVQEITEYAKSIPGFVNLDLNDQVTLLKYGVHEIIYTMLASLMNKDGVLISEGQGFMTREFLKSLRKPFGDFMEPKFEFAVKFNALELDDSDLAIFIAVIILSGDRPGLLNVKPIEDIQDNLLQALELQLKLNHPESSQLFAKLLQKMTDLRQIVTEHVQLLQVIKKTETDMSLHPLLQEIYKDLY
With Cc1ccc2nc(N3C(=O)C(=O)C(C(=O)c4ccc(C)o4)C3c3ccco3)sc2c1 (centres undefined) the IC50 was 22 µM.
Work on COc1ccc2nc(N3C(=O)C(=O)C(C(=O)c4ccco4)C3c3ccc(C)o3)sc2c1 (centres undefined) yielded an IC50 of 5 µM.
With CCOc1ccc2nc(N3C(=O)C(=O)C(C(=O)c4ccco4)C3c3ccco3)sc2c1 (centres undefined) [1-(6-ethoxy-1,3-benzothiazol-2-yl)-2-(2-furanyl)-3-[2-furanyl(oxo)methyl]-4-hydroxy-2H-pyrrol-5-one] the IC50 was 3 µM.
Cc1ccc2nc(N3C(=O)C(=O)C(C(=O)c4ccco4)C3c3ccc(C)o3)sc2c1 (centres undefined) [3-[2-furanyl(oxo)methyl]-4-hydroxy-1-(6-methyl-1,3-benzothiazol-2-yl)-2-(5-methyl-2-furanyl)-2H-pyrrol-5-one;oxalic acid] was tested, and the IC50 was 30 µM.
